Test results as given in patent US6380227B1, “Fermentative preparation process for and crystal forms of cytostatics” (Novartis AG, priority 1998, dated 2002).

Assay: Stability of crystal forms of epothilone B
Conditions: storage, no test described

C/C(=C\c1csc(C)n1)[C@@H]1C[C@@H]2O[C@]2(C)CCC[C@H](C)[C@H](O)[C@@H](C)C(=O)C(C)(C)[C@@H](O)CC(=O)O1 [crystal form A, epothilone B]
stability of the solid crystal form: especially stable
